According to BindingDB's records for patent US20240368150 (Hoffmann-La Roche, 2024):

Key:
[1] = molecular target: Diacylglycerol kinase alpha (Homo sapiens, UniProt P23743); test: In Vitro DGK Inhibition Assays
Experimental: DGK α and ζ kinase use ATP to phosphorylate the substrate 1,2-dilauroyl-sn-glycerol (DLG, incorporated in the liposomes). ATP is converted to ADP as a result of this enzymatic reaction. After the kinase reaction, an ATP-depletion reagent is added to terminate the kinase reaction and deplete any remaining ATP, leaving only ADP. Second, a detection reagent is added to simultaneously convert ADP to ATP and allow the newly synthesized ATP to be converted to light using a coupled luciferase/luciferin reaction. A concentrated liposome solution was prepared in assay buffer without DTT and BSA: 2 mM of DLG in 21 mM of total liposome (2 mM DLG/8 mM PS/11 mM PC). […] The reactions were started by addition of DGK α and ζ kinases at 4 nM and 2 nM final concentrations, respectively. After 1 hour reaction, the amount of ADP formed was detected with the ADP-Glo kinase assay (Promega) according to the manufacturer instructions. Compounds were added in 11-points dose response, starting at […], 1:3 dilutions, with a final DMSO concentration of 2%. The multidrop combi was used as a liquid handler and luminescence was read with 0.5 s by the envision reader (PE).

[2] = molecular target: Diacylglycerol kinase zeta (Homo sapiens, UniProt Q13574)
Chain of Diacylglycerol kinase zeta (Q13574 as listed by the source): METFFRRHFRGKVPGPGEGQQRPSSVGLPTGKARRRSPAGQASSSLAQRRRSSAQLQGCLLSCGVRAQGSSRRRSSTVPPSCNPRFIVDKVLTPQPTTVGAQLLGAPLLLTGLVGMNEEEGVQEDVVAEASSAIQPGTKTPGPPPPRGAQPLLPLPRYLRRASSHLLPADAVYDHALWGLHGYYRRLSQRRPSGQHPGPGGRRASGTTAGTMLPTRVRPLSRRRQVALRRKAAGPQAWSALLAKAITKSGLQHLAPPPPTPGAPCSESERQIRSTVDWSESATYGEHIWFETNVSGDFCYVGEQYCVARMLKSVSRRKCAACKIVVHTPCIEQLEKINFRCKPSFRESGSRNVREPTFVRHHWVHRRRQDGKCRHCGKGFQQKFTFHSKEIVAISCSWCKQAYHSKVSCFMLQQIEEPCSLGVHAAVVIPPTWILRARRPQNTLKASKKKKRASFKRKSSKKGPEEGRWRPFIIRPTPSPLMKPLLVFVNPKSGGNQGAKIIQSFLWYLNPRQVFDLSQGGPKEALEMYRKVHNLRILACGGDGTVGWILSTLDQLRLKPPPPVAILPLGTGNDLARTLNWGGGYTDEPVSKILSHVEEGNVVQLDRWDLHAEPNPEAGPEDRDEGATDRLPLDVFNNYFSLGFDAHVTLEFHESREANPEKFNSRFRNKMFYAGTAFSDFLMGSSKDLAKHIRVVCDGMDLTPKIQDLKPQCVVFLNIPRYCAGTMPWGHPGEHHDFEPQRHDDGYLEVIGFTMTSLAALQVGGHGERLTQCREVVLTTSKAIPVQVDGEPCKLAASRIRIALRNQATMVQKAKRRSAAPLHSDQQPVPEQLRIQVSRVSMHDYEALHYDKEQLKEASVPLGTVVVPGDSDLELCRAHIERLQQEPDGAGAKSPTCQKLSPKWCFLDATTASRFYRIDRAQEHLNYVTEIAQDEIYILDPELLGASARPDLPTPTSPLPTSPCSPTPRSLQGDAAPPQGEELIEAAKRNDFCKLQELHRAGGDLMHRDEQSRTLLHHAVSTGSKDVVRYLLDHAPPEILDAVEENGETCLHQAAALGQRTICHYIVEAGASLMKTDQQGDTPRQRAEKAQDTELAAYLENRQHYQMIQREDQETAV

Chain of Diacylglycerol kinase alpha (P23743 whole entry): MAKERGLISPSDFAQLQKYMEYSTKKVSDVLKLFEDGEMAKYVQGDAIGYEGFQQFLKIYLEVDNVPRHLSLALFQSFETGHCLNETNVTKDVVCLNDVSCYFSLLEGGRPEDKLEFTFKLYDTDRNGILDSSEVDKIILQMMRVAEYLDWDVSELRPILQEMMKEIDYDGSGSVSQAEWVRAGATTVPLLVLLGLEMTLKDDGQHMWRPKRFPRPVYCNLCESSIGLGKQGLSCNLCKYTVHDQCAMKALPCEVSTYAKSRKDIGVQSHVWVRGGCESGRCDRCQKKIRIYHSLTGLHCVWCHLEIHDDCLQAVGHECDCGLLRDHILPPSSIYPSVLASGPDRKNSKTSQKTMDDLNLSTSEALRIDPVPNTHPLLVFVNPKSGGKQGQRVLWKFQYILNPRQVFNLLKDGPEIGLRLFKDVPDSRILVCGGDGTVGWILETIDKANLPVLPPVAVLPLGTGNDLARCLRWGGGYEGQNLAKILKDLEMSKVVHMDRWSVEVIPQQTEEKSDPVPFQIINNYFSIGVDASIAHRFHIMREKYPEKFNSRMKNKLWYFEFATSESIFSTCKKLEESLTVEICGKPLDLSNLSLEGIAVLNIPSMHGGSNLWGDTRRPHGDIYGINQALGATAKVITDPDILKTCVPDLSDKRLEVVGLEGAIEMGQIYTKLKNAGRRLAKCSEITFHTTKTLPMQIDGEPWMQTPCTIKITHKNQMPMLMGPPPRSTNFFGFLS

IC50 [1] [µM]	IC50 [2] [µM]	Structure (SMILES)
3.06	3.67	CN(C)C(=O)c1nnc(-c2cc3c(cc2F)S(=O)(=O)C[C@H](N)C(=O)N3Cc2ccc(Cl)cc2)o1 [US20240368150, Example 87]
4.06	1.44	COC1(c2nnc(-c3ccc4c(c3)N(Cc3ccc(Cl)cc3)C(=O)[C@@H](N)CS4(=O)=O)o2)CCC(F)(F)CC1 [US20240368150, Example 378]
